Results taken from ChEMBL document CHEMBL1201862, “PubChem BioAssay data set” (2004).
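In this assay, cells in 96-well plates receive the compound at five concentrations for 48 hours. Endpoints are linearly interpolated between the surrounding concentrations. GI50 is the concentration that inhibits growth by half.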 Active and inactive are the calls of the source. Cut-off read from the data, not from the text of the source: active = GI50 up to about 1.1 µM and inactive = higher.

Columns and labels:
Test in all cases: DTP human tumour cell line panel, 48 h
[1] = test system: 786-0
[2] = test system: DU-145
[3] = test system: HCC 2998
[4] = test system: HT-29
[5] = test system: Hs-578T
[6] = test system: KM12
[7] = test system: MDA-N
[8] = test system: MOLT-4
[9] = test system: NCI-H226
[10] = test system: NCI-H460
[11] = test system: NCI-H522
[12] = test system: OVCAR-8
[13] = test system: PC-3
[14] = test system: RXF 393
[15] = test system: SK-MEL-2
[16] = test system: SK-MEL-5
[17] = test system: SNB-75
[18] = test system: TK-10
[19] = test system: UACC-257
[20] = test system: UACC-62

With `COC(C(=O)C(O)C(C)O)C1CC2C=C3C=C(OC4CC(OC5CC(O)C(OC)C(C)O5)C(OC(C)=O)C(C)O4)C(C)C(O)=C3C(O)=C2C(=O)C1OC1CC(OC2CC(OC3CC(C)(O)C(OC(=O)C(C)C)C(C)O3)C(O)C(C)O2)C(O)C(C)O1` (stereo not given) the GI50 [1] was < 0.01 µM (active), the GI50 [2] was < 0.01 µM (active) and the GI50 [3] was < 0.01 µM (active). The GI50 [4] was < 0.01 µM (active), the GI50 [5] was < 0.01 µM (active) and the GI50 [6] was < 0.01 µM (active). For the same compound, the GI50 [7] was < 0.01 µM (active), the GI50 [8] was < 0.01 µM (active) and the GI50 [9] was < 0.01 µM (active). The GI50 [10] was < 0.01 µM (active), the GI50 [11] was < 0.01 µM (active) and the GI50 [12] was < 0.01 µM (active). The GI50 [13] was < 0.01 µM (active), the GI50 [14] was < 0.01 µM (active) and the GI50 [15] was < 0.01 µM (active). The GI50 [16] was < 0.01 µM (active), the GI50 [17] was < 0.01 µM (active) and the GI50 [18] was < 0.01 µM (active). The GI50 [19] was < 0.01 µM (active) and the GI50 [20] was < 0.01 µM (active).
With `CC(C)Oc1cccc(N2C(NCc3c[nH]c4ccccc34)=Nc3ccncc3S2(=O)=O)c1` the GI50 [1] was 30.3 µM (inactive), the GI50 [2] was 42.8 µM (inactive) and the GI50 [3] was 25.5 µM (inactive). For the same compound, the GI50 [4] was 25.1 µM (inactive), the GI50 [5] was 16.2 µM (inactive) and the GI50 [6] was 33.3 µM (inactive). For the same compound, the GI50 [7] was 31.6 µM (inactive), the GI50 [8] was 16.7 µM (inactive) and the GI50 [9] was 45.4 µM (inactive). The GI50 [10] was 18.5 µM (inactive), the GI50 [11] was 17.4 µM (inactive) and the GI50 [12] was 29.9 µM (inactive). For the same compound, the GI50 [13] was 16.3 µM (inactive), the GI50 [14] was 40.3 µM (inactive) and the GI50 [15] was 18.6 µM (inactive). For the same compound, the GI50 [16] was 13.9 µM (inactive), the GI50 [17] was 18.3 µM (inactive) and the GI50 [18] was 25.2 µM (inactive). For the same compound, the GI50 [19] was 31.3 µM (inactive) and the GI50 [20] was 11.9 µM (inactive).
With `Cc1nc(-c2ccccc2)c(-c2ccccc2)s1` the GI50 [1] was 21.4 µM (inactive), the GI50 [2] was 32 µM (inactive) and the GI50 [3] was 12.7 µM (inactive). The GI50 [4] was 17.9 µM (inactive), the GI50 [5] was 21.8 µM (inactive) and the GI50 [6] was 20.4 µM (inactive). For the same compound, the GI50 [7] was 11.4 µM (inactive), the GI50 [8] was 17.6 µM (inactive) and the GI50 [9] was 17.9 µM (inactive). The GI50 [10] was 19.1 µM (inactive), the GI50 [11] was 18.6 µM (inactive) and the GI50 [12] was 27.1 µM (inactive). For the same compound, the GI50 [13] was 14.2 µM (inactive), the GI50 [14] was 19.4 µM (inactive) and the GI50 [15] was 16.7 µM (inactive). For the same compound, the GI50 [16] was 14.4 µM (inactive), the GI50 [17] was 23.4 µM (inactive) and the GI50 [18] was 19.7 µM (inactive). For the same compound, the GI50 [19] was 25.1 µM (inactive) and the GI50 [20] was 18 µM (inactive).
In the case of `CCOC(=O)C1OC(C2(C)OC3(OC4(C=CC3O)OC(C(C)C(=O)C(C)C(O)C(C)CC(C)c3c(Cl)cc(C)c(O)c3C(=O)O)C(C)CC4C)C(C)C2OC)CC1O` (stereo not given), the GI50 [1] was 0.454 µM (active), the GI50 [2] was 0.598 µM (active) and the GI50 [3] was 0.034 µM (active). The GI50 [4] was 0.34 µM (active), the GI50 [5] was 0.982 µM (active) and the GI50 [6] was 1.28 µM (inactive). The GI50 [7] was 0.55 µM (active), the GI50 [8] was 0.117 µM (active) and the GI50 [9] was 0.24 µM (active). For the same compound, the GI50 [10] was 0.0826 µM (active), the GI50 [11] was < 0.0803 µM (active) and the GI50 [12] was 0.771 µM (active). The GI50 [13] was 1.6 µM (inactive), the GI50 [14] was 0.647 µM (active) and the GI50 [15] was 0.493 µM (active). The GI50 [16] was 0.257 µM (active), the GI50 [17] was 0.163 µM (active) and the GI50 [18] was 2.34 µM (inactive). The GI50 [19] was 0.577 µM (active) and the GI50 [20] was 0.27 µM (active).
For `COc1cccc(OC)c1C1ON=C(c2ccccc2)N1C12CC3CC(CC(C3)C1)C2` (stereo not given), the GI50 [1] was 42.1 µM (inactive), the GI50 [2] was > 100 µM (inactive) and the GI50 [3] was > 100 µM (inactive). For the same compound, the GI50 [4] was > 100 µM (inactive), the GI50 [5] was 57.7 µM (inactive) and the GI50 [6] was > 100 µM (inactive). The GI50 [7] was > 100 µM (inactive), the GI50 [8] was 84.5 µM (inactive) and the GI50 [9] was > 100 µM (inactive). The GI50 [10] was > 100 µM (inactive), the GI50 [11] was 31 µM (inactive) and the GI50 [12] was > 100 µM (inactive). The GI50 [13] was 66.5 µM (inactive), the GI50 [14] was 1.2 µM (inactive) and the GI50 [15] was 64 µM (inactive). The GI50 [16] was 27.3 µM (inactive), the GI50 [17] was 20.7 µM (inactive) and the GI50 [18] was 36.6 µM (inactive). The GI50 [19] was > 100 µM (inactive) and the GI50 [20] was > 100 µM (inactive).
`O=c1onc2n1-c1ccc(Cl)cc1C(=S)N1CSCC21` (stereo not given) was tested, and the GI50 [1] was 23.1 µM (inactive), the GI50 [2] was 34.2 µM (inactive) and the GI50 [3] was 19.5 µM (inactive). For the same compound, the GI50 [4] was 24.5 µM (inactive), the GI50 [5] was 22.2 µM (inactive) and the GI50 [6] was 29.4 µM (inactive). For the same compound, the GI50 [7] was 8.71 µM (inactive), the GI50 [8] was 30.1 µM (inactive) and the GI50 [9] was 28.1 µM (inactive). The GI50 [10] was 20.9 µM (inactive), the GI50 [11] was 21.9 µM (inactive) and the GI50 [12] was 18.1 µM (inactive). For the same compound, the GI50 [13] was 31.4 µM (inactive), the GI50 [14] was 33.6 µM (inactive) and the GI50 [15] was 25.1 µM (inactive). The GI50 [16] was 19.7 µM (inactive), the GI50 [17] was 30.4 µM (inactive) and the GI50 [18] was 70.5 µM (inactive). The GI50 [19] was > 100 µM (inactive) and the GI50 [20] was 67.8 µM (inactive).
With `Cc1ccc(S(=O)(=O)c2scc(-c3ccccc3)c2C)cc1` the GI50 [1] was > 100 µM (inactive), the GI50 [2] was 93.5 µM (inactive) and the GI50 [3] was > 100 µM (inactive). For the same compound, the GI50 [4] was > 100 µM (inactive), the GI50 [5] was > 100 µM (inactive) and the GI50 [6] was > 100 µM (inactive). The GI50 [7] was > 100 µM (inactive), the GI50 [8] was 42.7 µM (inactive) and the GI50 [9] was > 100 µM (inactive). For the same compound, the GI50 [10] was > 100 µM (inactive), the GI50 [11] was > 100 µM (inactive) and the GI50 [12] was > 100 µM (inactive). For the same compound, the GI50 [13] was 89.3 µM (inactive), the GI50 [14] was > 100 µM (inactive) and the GI50 [15] was 62.8 µM (inactive). The GI50 [16] was 40.2 µM (inactive), the GI50 [17] was > 100 µM (inactive) and the GI50 [18] was > 100 µM (inactive). The GI50 [19] was 74 µM (inactive) and the GI50 [20] was > 100 µM (inactive).
`FC(F)(F)c1ccc2c(-c3cc[nH]c3)ccnc2c1` was tested, and the GI50 [1] was 17.7 µM (inactive), the GI50 [2] was 32.5 µM (inactive) and the GI50 [3] was > 100 µM (inactive). The GI50 [4] was 21.4 µM (inactive), the GI50 [5] was 23.9 µM (inactive) and the GI50 [6] was 31.8 µM (inactive). The GI50 [7] was 32.3 µM (inactive), the GI50 [8] was 19.4 µM (inactive) and the GI50 [9] was 36.9 µM (inactive). The GI50 [10] was 33.7 µM (inactive), the GI50 [11] was 32.4 µM (inactive) and the GI50 [12] was 34.1 µM (inactive). For the same compound, the GI50 [13] was 36.6 µM (inactive), the GI50 [14] was 22.5 µM (inactive) and the GI50 [15] was > 100 µM (inactive). The GI50 [16] was 20.7 µM (inactive), the GI50 [17] was 14.4 µM (inactive) and the GI50 [18] was 28.6 µM (inactive). The GI50 [19] was 31.4 µM (inactive) and the GI50 [20] was > 100 µM (inactive).
